In patent US8507562B2, “Synthesis of (1)-beta-elemene, (-)-beta-elemenal, (-)-beta-elemenol, (-)-beta-elemene fluoride and their analogues, intermediates, and composition and uses thereof” (HYWE Pharmaceuticals, Inc., priority 2004, dated 2013):
Read-outs that look alike come from different tables or passages of the source.

Tests used:
[1] = system: human breast cancer Bcap-37
[2] = Chronic toxicity study, 28 days i.v.; type: in vivo; settings: Beagle dogs
[3] = system: Colon Cancer Cells HCT-15
Method: Cells were maintained at 37° C. in a humidified atmosphere including 5% CO2. […] Drugs were dissolved in 100% DMSO and then diluted in medium for experiments.

[4] = system: human prostate cancer PC-3M
H-460 lung cancer = assay: MTT survival assay; type: cell-based, human; settings: 2 × 10^4 cells/ml
Method: The MTT assay is a commonly used method in evaluation of cell survival, based on the ability of viable cells to convert MTT, a soluble tetrazolium salt [3-(4,5-dimethylthuazole-2-yl)-2,5 diphenyl tetrazolium bromide], into an insoluble formazan precipitate, which is quantitated by spectrophotometry following solubilization in dimethyl sulfoxide (DMSO).
The cells were then solubilized in 125 μl of DMSO and absorbance readings were taken using a 96-well Opsys MRI Microplate Reader (ThermoLabsystems; Chantilly, Va.). The amount of MTT dye reduction was calculated based on the difference between absorbance at 570 nm and at 630 nm. Cell viability in treated cells was expressed as the amount of dye reduction relative to that of untreated control cells. The wells which contained only medium and 10 μl of MTT were used as blanks for the plate reader. Three sets of experiments were performed in 8-12 wells for each treatment.
In brief, carcinoma cells treated with test articles alone, in 96-well tissue culture dishes were incubated with MTT (2 μg/ml) for 4 h. The cells were then solubilized in 125 μl of DMSO and absorbance readings were taken using a 96-well Opsys MRI Microplate Reader (ThermoLabsystems; Chantilly, Va.). The amount of MTT dye reduction was calculated based on the difference between absorbance at 570 nm and at 630 nm. Cell viability in treated cells was expressed as the amount of dye reduction relative to that of untreated control cells. The wells that contained only medium and 10 μl of MTT were used as blanks for the plate reader.
The cells were then solubilized in 125 μl of DMSO and absorbance readings were taken using a 96-well Opsys MRI Microplate Reader (ThermoLabsystems; Chantilly, Va.). The amount of MTT dye reduction was calculated based on the difference between absorbance at 570 nm and at 630 nm. Cell viability in treated cells was expressed as the amount of dye reduction relative to that of untreated control cells. The wells which contained only medium and 10 μI of MTT were used as blanks for the plate reader. Three sets of experiments were performed in 8-12 wells for each treatment.

BEL-7402 cells = BEL-7402 cells after 6 weeks of induction with Elemene at 48.9 ug/ml; cited from earlier work
[5] = 3H labeled Elemene, intravenous or oral, radioactivity detected in brain; cited from earlier work
[6] = Chronic toxicity study, 28 days i.p.; type: in vivo; settings: rats
Method: In the Rat study, three groups of rats (n=20 per group, half male and half female) were given (i.p.) 7.5, 15, or 30 mg/kg/d of β-Elemene for 28 days consecutively. […] Ascites were not completely absorbed during 4 weeks without drug intake. […] The accumulated toxicity of β-Elemene (via i.p.) was not severe, except irritation at local injection site. The safe dose was 7.5 mg/kg/d.

[7] = 25 mg/kg/time iv × 10 bid, listed as β-Elemene

(−)-Beta-elemene
Inhibition Rate % ([1]; 12.5 mg/kg/time iv × 10 bid): 36.09%
Tumor Weight (g) X ± SD ([1]; 12.5 mg/kg/time iv × 10 bid): 0.870 ± 0.04 g
Inhibition Rate % ([1]; 12.5 mg/kg/time iv × 10 bid, listed as β-Elemene): 33.08%
Inhibition Rate % ([1]; 25 mg/kg/time iv × 10 bid): 45.31%
Tumor Weight (g) X ± SD ([1]; 25 mg/kg/time iv × 10 bid): 0.738 ± 0.07 g
Inhibition Rate % [1, 7]: 43.23%
Inhibition Rate % ([1]; 50 mg/kg/time iv × 10 bid): 51.33%
Tumor Weight (g) X ± SD ([1]; 50 mg/kg/time iv × 10 bid): 0.675 ± 0.10 g
Inhibition Rate % ([1]; 50 mg/kg/time iv × 10 bid, listed as β-Elemene): 48.08%
Inhibition Rate % (human lung cancer A549; 12.5 mg/kg/time iv × 10 bid): 31.28%
Tumor Weight (g) X ± SD (human lung cancer A549; 12.5 mg/kg/time iv × 10 bid): 1.34 ± 0.10 g
Tumor Weight (g) X ± SD (human lung cancer A549; 25 mg/kg/time iv × 10 bid): 1.17 ± 0.09 g
Inhibition Rate % (human lung cancer A549; [7]): 40.0%
Inhibition Rate % (human lung cancer A549; 50 mg/kg/time iv × 10 bid): 43.08%
Tumor Weight (g) X ± SD (human lung cancer A549; 50 mg/kg/time iv × 10 bid): 1.11 ± 0.08 g
side effects, high dose group ([2]; 75 mg/kg/d i.v., 28 days): nausea, vomiting, appetite loss, weight loss, saliva dripping and other side effects
pathology changes, low and medium dose groups ([2]; 15 and 30 mg/kg/d i.v., 28 days): No significant pathology changes related to drug
non-toxic dose ([2]; i.v., 28 days consecutively): 15 mg/kg
IC50 [3]: 194 ± 19.3 µg/mL
Inhibition Rate % ([4]; 12.5 mg/kg/time iv × 10 bid): 27.95%
Tumor Weight (g) X ± SD ([4]; 12.5 mg/kg/time iv × 10 bid): 1.16 ± 0.12 g
Inhibition Rate % ([4]; 25 mg/kg/time iv × 10 bid): 34.78%
Tumor Weight (g) X ± SD ([4]; 25 mg/kg/time iv × 10 bid): 1.05 ± 0.07 g
Inhibition Rate % ([4]; 50 mg/kg/time iv × 10 bid): 46.58%
Tumor Weight (g) X ± SD ([4]; 50 mg/kg/time iv × 10 bid): 0.86 ± 0.12 g
IC50 (H-460 lung cancer; H460, 24 h): 89.5 µg/mL
IC50 (H-460 lung cancer; H460, 48 h): 70.6 µg/mL
IC50 (H-460 lung cancer; H460, 72 h): 68.2 µg/mL
expression of MDR1 mRNA or P-glycoprotein (P-gp) (BEL-7402 cells): did not express MDR1 mRNA or P-glycoprotein (P-gp)
blood brain barrier (BBB) passage [5]: passes the blood brain barrier
changes, low dose group ([6]; 7.5 mg/kg/d i.p., 28 days): No significant changes
mortality, high dose group ([6]; 30 mg/kg/d i.p., 28 days, n=20): Six rats in high dose group died
ascites, medium and high dose groups ([6]; 15 and 30 mg/kg/d i.p., 28 days): Ascites were developed in all animals
safe dose ([6]; i.p., 28 days consecutively): 7.5 mg/kg/day
